Source: the NIST ThermoML archive (doi:10.1016/j.jct.2011.12.019)
Numbers after ± are expanded uncertainties.

Experiment: molar enthalpy of vaporization or sublimation
Conditions: 298.15 K, drop calorimetry

Row | Compound | molar enthalpy (Crystal) [kcal/mol] | molar enthalpy (Liquid) [kcal/mol]
1 | Cc1ccc(C#N)n1C [1,5-dimethyl-2-pyrrolecarbonitrile] | 18.7 ± 0.765 | 
2 | N#Cc1ccc[nH]1 [2-cyanopyrrole;] |  | 15.6 ± 0.669
